“Also recorded” adds a separate entry of the source.
Experiments:
U87 human glioma cells = test: Cell invasion through Matrigel-coated transwell filters (Boyden chambers); format: cell-based; conditions: 10 µg/mL, 6 h, 37 °C, Matrigel-coated 8 μm transwell filters
Method: Invasion assay was performed using Boyden chambers as reported previously. Briefly, U87 cells (5 × 10^5) were seeded into the upper chamber of the invasion chamber in a medium devoid of serum, and the lower chamber contained media supplemented with serum. The cell invasion on treatment with title compounds (4-MMI, 4-CMI; […]) was analyzed by staining with 0.5% crystal violet (Sigma-Aldrich) and photographed.
(§1) Figure 3 Inhibition of ECM degradation and cell invasion. (A) ECM degradation. Active heparanase (200 ng) was incubated for 5 h without (red) or with 5 and 25 µg/mL of 4-CMI, 4-MDI, or 4-MMI on dishes coated with sulfate-labeled ECM. Labeled material released from the ECM was subjected to gel filtration (Sepharose 6B). Heparan sulfate degradation fragments are typically eluted in fractions 18–30. (B) Cell invasion. U87 human glioma cells (2 × 10^5) were plated onto Matrigel-coated 8 μm transwell filters and incubated (6 h, 37 °C) in the absence (Con) or presence of 4-MMI or 4-CMI (10 µg/mL). (C) Dose–response showing the effect of compound 4-MMI (2.5, 10, and 40 µg/mL) on U87 cell invasion. Invading cells adhering to the lower side of the membrane were visualized (top panels) and quantified (bottom panel) in 7 random fields as described in ‘Materials and Methods’.

heparanase [1] = molecular target: T1, heparanase (Homo sapiens, UniProt Q9Y251); test: Colorimetric heparanase assay (fondaparinux/Arixtra cleavage, WST-1); format: biochemical; conditions: fondaparinux substrate, heparanase 140 pM, pH 5.0, 37 °C, 18 h; for IC50: read-out: IC50, inhibition of heparanase enzymatic activity (converted)
T1 sequence (Q9Y251 158-543 limits assumed): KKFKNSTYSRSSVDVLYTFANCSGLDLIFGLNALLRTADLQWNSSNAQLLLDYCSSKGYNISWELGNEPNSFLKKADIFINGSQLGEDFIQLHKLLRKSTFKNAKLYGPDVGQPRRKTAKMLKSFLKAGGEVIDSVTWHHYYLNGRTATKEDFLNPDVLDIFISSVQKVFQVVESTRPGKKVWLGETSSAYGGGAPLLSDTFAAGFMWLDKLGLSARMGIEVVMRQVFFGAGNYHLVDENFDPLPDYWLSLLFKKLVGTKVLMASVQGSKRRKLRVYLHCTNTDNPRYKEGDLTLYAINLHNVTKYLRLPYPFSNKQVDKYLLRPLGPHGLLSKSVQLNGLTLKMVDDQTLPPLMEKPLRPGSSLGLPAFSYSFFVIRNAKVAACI
T1 sequence (Q9Y251 36-109 limits assumed): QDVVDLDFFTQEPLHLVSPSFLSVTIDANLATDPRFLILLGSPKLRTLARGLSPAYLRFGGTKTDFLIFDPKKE
Method: The assay was carried out in a 96-well plate in which the formation of the disaccharide product upon cleavage of fondaparinux (Arixtra, GlaxoSmithKline, Brentford, UK) was estimated using WST-1 tetrazolium salt as described earlier. In brief, the reaction system (100 μL) comprised sodium acetate buffer (pH 5.0, 40 mM) and fondaparinux ([…]) with or without different doses of chemicals under investigation. The assay was initiated by the addition of recombinant heparanase to make the final concentration of 140 pM. The reaction vessels were placed at 37 °C for 18 h, followed by the addition of stop solution (100 μL). WST-1 prepared in 0.1 M NaOH served as a stop solution. Thereafter, the plates were incubated at 60 °C for 60 min, and absorbance was measured at 584 nm. N-(4-([4-(1H-Benzoimidazol-2-yl)-arylamino]-methyl)-phenyl)-benzamide (compound #98) was used as a reference compound. The title compounds were examined for their inhibitory efficacy towards heparanase at 10 and 50 μg/mL. Compounds that yielded inhibition at these concentrations were further tested at lower concentrations to determine their IC50.
The newly synthesized compounds presented in Table 1 were examined for their ability to inhibit the enzymatic activity of recombinant heparanase. For the initial screening of compounds, we applied a colorimetric assay based on the cleavage of the synthetic heparin pentasaccharide fondaparinux (Arixtra). The assay measures the appearance of a disaccharide product of heparanase-catalyzed fondaparinux cleavage, using the tetrazolium salt WST-1 [23]. All compounds were first tested for inhibition of heparanase at 10 and 50 μg/mL (not shown). Compounds that yielded inhibition at these high concentrations were further examined at lower concentrations to determine their IC50 (Figure 2).

heparanase [2] = molecular target: T1, heparanase; test: ECM degradation heparanase assay (sulfate-labeled ECM, Sepharose 6B gel filtration); format: biochemical; conditions: heparanase 200 ng, 5 h; for inhibition of heparanase activity (ECM degradation): 5 µg/mL compound; for inhibition at 25 µg/mL: 25 µg/mL compound
Method: ECM degradation heparanase assay was carried out as reported earlier. Briefly, ECM labeled with sulfate [^35S] [25] and coating the surface of 35-mm cultures plates was treated with heparanase (200 ng/mL) with or without compounds under investigation. The medium was collected to examine the cleavage of HS proteoglycans and subjected to molecular sieving on Sepharose 6B columns. The radioactivity was measured in the eluted fractions (0.2 mL). Blue dextran and phenol red were used to mark the excluded volume (Vo) and included volume (Vt), respectively. The cleaved HS chains were eluted at 0.5 < Kav < 0.8 (fractions 16–32), and the nearly intact proteoglycan was eluted with the void volume.
To validate the results and better resemble the in vivo situation, we applied metabolically sulfate [Na2^35SO4] labeled extracellular matrix (ECM) deposited by cultured endothelial cells. This naturally produced substrate closely resembles the subendothelial basement membrane in its composition, biological function, and barrier properties. […] This semi-quantitative assay measures release of radioactive heparan sulfate (HS) degradation fragments from an insoluble extracellular matrix (ECM) that is firmly bound to a culture dish.
as §1

[3] = system: 4T1 mouse breast carcinoma cells; test: 4T1 breast carcinoma experimental metastasis, IVIS bioluminescence imaging; format: in vivo, BALB/c mice; conditions: IVIS day 13
Method: 4TI mouse breast cancer cells tagged with luciferase (1.5 × 10^5/0.1 mL/BALB/c mouse) were inoculated intravenously. Test compounds (i.p., 500 μg/mouse) or DMSO (0.1 mL/mouse) were administered 20 min before cell injection. The mice were analyzed using IVIS bioluminescent on day 7 and day 13 post-inoculation. These cells metastasize primarily to the lungs.
The bioluminescence imaging of tumors generated from luciferase-expressing cancer cells was carried out using a highly sensitive, cooled charge-coupled device camera assembled in a specimen box (IVIS; Xenogen Corp, Hopkinton, MA, USA). The imaging has advantages such as real-time capture, non-invasive, and quantitative values. For this, the tumor-bearing mice were intraperitoneally administered with a luciferase substrate D-luciferin at a dose of 150 mg/kg body weight. The experimental animal was anesthetized and kept in a camera box followed by continuous exposure to isoflurane (EZAnesthesia, Palmer, PA, USA). The bioluminescence from the tumor mass was detected by the IVIS system, and, subsequently, the tumor burden was quantified using Living Image software (Xenogen).
Figure 4 Inhibition of 4T1 breast carcinoma experimental metastasis. […] Quantification of the luciferase intensities is shown graphically in the lower panel, as described in ‘Section 2. […]

VEGF = test: Immunostaining of MPC-11 tumor sections with anti-VEGF antibodies; format: in vivo, BALB/c mice; conditions: tumors of mice treated daily with 200 μg/mouse i.p.
Method: Next, we examined the capacity of compound 4-MMI to inhibit myeloma primary tumor growth. For this purpose, we applied the MPC-11 syngeneic myeloma model. Briefly, BALB/c mice were implanted subcutaneously with MPC-11 mouse myeloma cells (0.5 × 10^6/mouse) and treated with either DMSO (0.1 mL/mouse) or 4-MMI (daily 200 μg/mouse, i.p.), starting on day two after tumor cell inoculation. Xenograft Tumor size was measured on days 8 and 12 (Figure 5A), resected, and weighed (Figure 5B) (see also Figure S2).
Figure S2. MPC-11 tumor growth. MPC-11 cells were inoculated subcutaneously at the right flank of 6-weeks old female Balb/C mice (n=6). Mice were treated with either DMSO (0.1 ml/mouse) or 4-MMI (daily 200 μg/mouse, i.p.) starting on day 2 after the injection of tumor cells, for 12 days. Tumor size was determined on days 8 and 12 (left panel). At the end of the experiment, mice were sacrificed and the tumors were resected and weighed (right panel). For more detail see figure 5.
Figure S3. Immunostaining. Tumors produced by untreated (control) a nd 4-MMI treated Balb/c mice were removed (day 13), fixed and embedded in paraffin. Five micron sections were subjected to immunostaining applying anti-VEGF antibodies. Shown are representative images (original magnification x100). […]

[4] = system: MPC-11 mouse myeloma cells; test: MPC-11 syngeneic myeloma tumor growth; format: in vivo
Method: The mouse myeloma (MPC-11) cells were gently washed with PBS and the cell number was adjusted to 5 × 10^6 cells/mL. Thereafter, six-week-old female BALB/c mice (n = 6) were subcutaneously injected with washed MPC-11 cells (5 × 10^5/0.1 mL). The experimental animals were treated with either DMSO alone (0.1 mL/mouse) or 4-MMI (daily 200 μg/mouse, i.p.) starting from day 2 after the implantation of tumor cells, for 12 days. The tumor size was measured using calipers on day 8 and day 12. The tumor volume (V) was determined using the equation V = L × W^2 × 0.52, where L is the length and W is the width of the tumor. Lastly, the mice were euthanized and xenograft tumors were removed, weighed, and fixed using formalin for further studies.
Figure 5 MPC-11 tumor growth. Cells (MPC-11 mouse myeloma) from exponential cultures were washed with PBS and brought to a concentration of 5 × 10^6 cells/mL. Cell suspension (5 × 10^5/0.1 mL) was inoculated subcutaneously at the right flank of 6-week-old female BALB/c mice (n = 6). Mice were treated with either DMSO (0.1 mL/mouse) or test compound (daily 200 µg/mouse, i.p.), starting on day 2 after the injection of tumor cells, for 12 days. Tumor size was determined on days 8 and 12 by externally measuring the tumors in two dimensions using a caliper (A, p < 0.001). […]

tumor cell = system: tumor cell; parameters: method as in PMID 28359266; conditions: cited from earlier work

Compound	IC50 (heparanase [1]) [µM]	inhibition of heparanase activity (ECM degradation) (heparanase [2])	inhibition at 25 µg/mL (heparanase [2]) [%]	invasion capacity of U87 cells (U87 human glioma cells)	other results
Cc1ccc(-c2nnc3sc(-c4cc(I)ccc4O)nn23)cc1 [4-MMI, 4-iodo-2-(3-(p-tolyl)-[1,2,4]triazolo[3,4-b][1,3,4]thiadiazol-6-yl)phenol]	7.14	little or no inhibition	50 to 70	significantly inhibited	inhibition of 4T1 experimental metastasis (extravasation and lung colonization, luciferase intensity) ([3]; 500 μg/mouse i.p. 20 min before i.v. cell inoculation): inhibited the extravasation of 4T1 cells and their subsequent colonization in the mouse lungs; also recorded: nearly fourfold inhibition; VEGF levels in tumor sections (VEGF): marked decrease in the levels of VEGF; also recorded: profound reduction in VEGF levels; tumor growth and tumor burden (tumor size days 8 and 12, tumor weight) ([4]; daily 200 μg/mouse i.p. from day 2 for 12 days, s.c. MPC-11 tumors): effectively and markedly decreased the rate of tumor growth and the tumor burden; also recorded: profound inhibition of tumor growth and burden; signs of distress and toxicity ([4]; daily administration of 200 ug/mouse/day): no signs of distress and toxicity
N-(4-([4-(1H-Benzoimidazol-2-yl)-arylamino]-methyl)-phenyl)-benzamide [Compound #98, reference compound]					IC50, inhibition of heparanase enzymatic activity (heparanase [1]): 0.7 µg/mL
Roneparstat [reference compound]					inhibition of 4T1 experimental metastasis (luciferase intensity) ([3]; positive control 150 µg/mouse i.p. 20 min before i.v. cell inoculation): comparable

More lines, main results first:

IC50 (heparanase [1]) [µM]	inhibition of heparanase activity (ECM degradation) (heparanase [2])	inhibition at 25 µg/mL (heparanase [2]) [%]	Compound	invasion capacity of U87 cells (U87 human glioma cells)	other results
6.6	little or no inhibition	50 to 70	Oc1ccc(I)cc1-c1nn2c(-c3ccc(Cl)cc3)nnc2s1 [4-CMI, 2-(3-(4-chlorophenyl)-[1,2,4]triazolo[3,4-b][1,3,4]thiadiazol-6-yl)-4-iodophenol]	significantly inhibited	
22.3	little or no inhibition	50 to 70	Cc1ccc(-c2nnc3sc(-c4cc(I)cc(I)c4O)nn23)cc1 [4-MDI, 2,4-diiodo-6-(3-(p-tolyl)-[1,2,4]triazolo[3,4-b][1,3,4]thiadiazol-6-yl)phenol]		
54.9			Oc1c(I)cc(I)cc1-c1nn2c(-c3ccccc3)nnc2s1 [DTP, 2,4-Diiodo-6-(3-phenyl-[1,2,4]triazolo[3,4-b][1,3,4]thiadiazol-6yl)phenol, reference compound]		IC50 values, inhibition of tumor cell proliferation, migration, and invasion in vitro (tumor cell): micromolar range
